These results are taken from patent US20050271676A1, “Inducing cellular immune responses to human immunodeficiency virus-1 using peptide and nucleic acid compositions” (Epimmune Inc., priority 1993, published 2005).

SMILES strings stand for the structures.

Assay [1] concerns HLA-A11/K^b transgenic mice. The experiment in a line: CTL induction in HLA-A11/K^b transgenic mice after peptide immunization. Conditions: protocol as for HLA-A2 transgenic mice. It counts as in vivo.
In assay [2] the test system is PBMC from patients infected with HIV. Briefly: recall CTL responses, PBMC from HIV-infected patients, 51Cr release. It counts as cell-based, human.
Another assay concerns the target HLA-A*0203 (Homo sapiens, UniProt P04439, A173T/D140Y/D185E/D98H/E277Q/G131W/G231S/I119V/I121R/I166T/I218V/L180W/L300P/L318F/N151K/N90K/P208A/P217A/Q86G/Q94H/R138H/R169H/T345S). The experiment in a line: purified HLA class I binding assay, A*0203.
Assay [3] relates to A*0201/K^b transgenic mice. Briefly: CTL induction in A*0201/K^b transgenic mice after peptide immunization. It counts as in vivo.
The target in a further assay is HLA-A*6802 (Homo sapiens, UniProt P04439, A269V/D140Y/D185E/E176V/E277Q/E87N/F33Y/G231S/I121R/I166T/I218V/L180W/L300P/L318F/N151K/P208A/P217A/Q86R/R138H/R169H/S129P/T345S/V36M). The experiment in a line: purified HLA class I binding assay, A*6802.
The target of another assay is HLA-A*0206 (Homo sapiens, UniProt P04439, D140Y/D185E/D98H/E176V/E277Q/F33Y/G131W/G231S/I119V/I121R/I166T/I218V/L300P/L318F/N151K/N90K/P208A/P217A/Q86G/Q94H/R138H/R169H/T345S). The experiment in a line: purified HLA class I binding assay, A*0206.

As for `CC(C)[C@H](N)C(=O)N[C@H](C(=O)N[C@H](C(=O)N[C@@H](Cc1ccc(O)cc1)C(=O)N[C@@H](Cc1ccc(O)cc1)C(=O)NCC(=O)N[C@H](C(=O)N1CCC[C@H]1C(=O)N[C@H](C(=O)N[C@@H](Cc1c[nH]c2ccccc12)C(=O)N[C@@H](CCCCN)C(=O)O)C(C)C)C(C)C)C(C)C)[C@@H](C)O` [Peptide 1069.47], in assay [1], the “induction of CTL in HLA-A11 transgenic mice” value is recorded as “induced CTL responses in transgenic mice”. Further, the “immunogenicity in HIV-infected patients” value in assay [2] (shown by collaborators) is given as “immunogenic in HIV-infected patients”.

Consider `CC[C@H](C)[C@H](NC(=O)CNC(=O)[C@H](Cc1c[nH]c2ccccc12)NC(=O)[C@@H](NC(=O)[C@@H](NC(=O)[C@H](CC(C)C)NC(=O)[C@H](CCC(N)=O)NC(=O)[C@H](CC(C)C)NC(=O)[C@@H](N)CC(C)C)[C@@H](C)O)C(C)C)C(=O)O` [Peptide 1261.02], for which the IC50 (as a rule, the concentration at which inhibition is half-maximal) at HLA-A*0203 was 43.5 nM; on HLA-A*6802 it was 645 nM; at HLA-A*0206, 24.7 nM. Also, the Immunogenicity transgenic is listed as 1/6 in assay [3] (A2 Supermotif peptides, positive/tested transgenic) and 1/6 in assay [3] (A*0201/K^b transgenic mice, positive/tested). For the same molecule, the Immunogenicity patients in assay [2] (A2-supertype peptides, positive/tested HIV-infected patients) was 2/8; in assay [2] (A2 Supermotif peptides, positive/tested patients), 2/8.
